Experimental findings from patent US20150297562A1, “ANALGESIC” (NIPPON ZOKI PHARMACEUTICAL CO., LTD., priority 2012, published 2015) are described below.

The assay concerns MIA-induced OA rats. The assay is described as follows: Analgesic action to MIA-induced osteoarthritis model rats (von Frey test, 50% reaction threshold to mechanical stimulus). Format: in vivo, rat (male Wistar). To be noted: Rattus norvegicus, ip, single intraperitoneal dose of 200 μg/kg, von Frey test after 1 hour from administration, normal threshold value 15, read-out: Recovery rate of 50% reaction threshold value (%). As for the experimental part: Pharmacological Test I: Analgesic Action to Osteoarthritis Model Rats
There were conducted the following experiments for testing the analgesic action of the analgesic of the present invention using the osteoarthritis (OA) rats induced by sodium monoiodoacetate (MIA) which were model animals for OA.
(1) Preparation of MIA-Induced OA Rats
A 50% reaction threshold value to the mechanical stimulus of male Wistar rats of six weeks age was measured (the measuring method will be mentioned later) and a normal control group was selected. MIA prepared by saline was administered in a single dose of 300 μg/50 μL into right knee joint of the rats except the normal control group while 50 μL of saline was administered into left knee joint whereupon the MIA-induced OA rats were prepared. To the normal control group, 50 μL of saline was administered into the joints of both knees.
With regard to the male Wistar rats of six weeks age used as experimental animals except the normal control group, their 50% reaction threshold values to the mechanical stimulus (the measuring method will be mentioned later) and body weights were measured after […] from the administration of MIA mentioned in (1) and then 3 groups each comprising six rats [a normal control group, an onset control group and a test drug-administered group] were organized.
(3) Administration of Test Drug
A test drug solution (100 μg/mL) using the compound according to the analgesic of the present invention as a test drug was prepared using a phosphate buffered saline (PBS) containing 0.1 vol % of dimethyl sulfoxide (DMSO).
Immediately after the grouping (after 14 days from the administration of MIA), a test drug solution was intraperitoneally administered in a single dose of 200 μg/kg to a test drug-administered group. Meanwhile, to the normal control group and the onset control group, PBS containing 0.1 vol % of DMSO was intraperitoneally administered in a single dose.
(4) Result of Measurement of the 50% Reaction Threshold Values to the Mechanical Stimulus (Von Frey Test)
The three groups of rats of the above (2) were placed in a transparent acrylic cage with a wire-meshed floor and habituated for about three minutes and the 50% reaction threshold values to the mechanical stimulus were measured after 1 hour from the administration of a test drug. The measurement was conducted using von Frey filaments (manufactured by North Coast Medical Inc.) in accordance with the methods of Chaplan, et al. (Journal of Neuroscience Methods, vol. 53, no. 1, pages 55 to 63, 1994) and Dixon, et al. (Annual Review of Pharmacology and Toxicology, vol. 20, pages 441 to 462, 1980). […] The case where the rat escaped at the instance of removing the filament was also called positive. When the positive reaction was noted, stimulus was conducted similarly using a filament of one rank weaker while, when no reaction was noted, stimulus was conducted similarly using a filament of one rank stronger and the point when the reaction changed from negative to positive or from positive to negative was called the first two reactions. After that, stimulus was conducted for continuous four times by the same up-down method. A 50% reaction threshold value to the mechanical stimulus was measured using the reaction to the six stimuli in total and then (mean value)±(standard error) for each group was calculated. Incidentally, when stimulus reached by that of 15.0 g without positive reaction or, when positive reaction continued to 0.4 g, then 15.0 g or 0.25 g was adopted as each threshold value, respectively.
With regard to the 50% reaction threshold value after 1 hour from administration of a test drug, a recovery rate (%) of the 50% reaction threshold value was calculated by the following expression in which 15 was adopted as the normal threshold value. […]

On to `CCCCCCC/C=C/C(=O)OCCN(C)C` [Compound 1, (E)-2-(dimethylamino)ethyl dec-2-enoate], for which the inhibition in vivo at 0.2 mg/kg is 25.5%. The same measure for `CCCCCCC/C=C/C(=O)OCCSC(C)C` [Compound 8, (E)-2-(isopropylthio)ethyl dec-2-enoate]: 28.9%. For the molecule `CCCCCCC/C=C/C(=O)OCCOC` [Compound 9, (E)-2-methoxyethyl dec-2-enoate], the inhibition in vivo at 0.2 mg/kg came out at 13%. Next, `CCCCCCC/C=C/C(=O)NCC(C)C` [Compound 18, (E)-N-isobutyl dec-2-enamide]: 49%.

`CCCCCCC/C=C/C(=O)NCCCCCC` [Compound 22, (E)-N-hexyl dec-2-enamide]: the inhibition in vivo at 0.2 mg/kg was determined as 44.3%. Next, `CCCCCCC/C=C/C(=O)NC1CCCCC1` [Compound 27, (E)-N-cyclohexyl dec-2-enamide]: 5.8%; `CCCCCCC/C=C/C(=O)NCCN(CC)CC` [Compound 37 (Citrate), (E)-N-2-(diethylamino)ethyl dec-2-enamide]: 45.1%. The same measure for `CCCCCCC/C=C/C(=O)N(CC)CCN(CC)CC` [Compound 44 (Citrate), (E)-N-(2-(diethylamino)ethyl)-N-ethyl dec-2-enamide]: 21.7%; for `CCCCCCC/C=C/C(=O)N(CCN(C)C)CCN(C)C` [Compound 45, (E)-N,N-bis(2-(dimethylamino)ethyl) dec-2-enamide]: 10.2%; for `CCCCCCC/C=C/C(=O)SCCCCCC` [Compound 50, (E)-S-hexyl dec-2-enethioate]: 15.6%. The same measure for `CCCCCCC/C=C/C(=O)SCCN(CC)CC` [Compound 56, (E)-S-2-(diethylamino)ethyl dec-2-enethioate]: 21.8%.
